Results reported in the supplement of paper PMC10307832.

Assays:
Experiment in all cases: relative viability (nuclei count vs DMSO), 5 days (fraction); higher = more cells survive
[1] = compound: NC(=O)c1ccc(N(C(N)=O)c2c(F)cccc2F)nc1-c1ccc(F)cc1F [VX-702] + CC(=O)c1c(C)c2cnc(Nc3ccc(N4CCNCC4)cn3)nc2n(C2CCCC2)c1=O [Palbociclib] (partner 0.5 µM)
Outline: (§1)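 One day after seeding in 1536-well plates, lung cancer cell lines were dosed by pin tool. Dosing was either single-drug or a fixed anchor-drug dose plus five library-drug doses (not always all listed) in √10 steps. After 5 days, nuclei were stained in one fix-and-stain step and counted on 4× images, and relative viability is the nuclei count of treated wells over that of vehicle wells, given as the median of duplicate plates.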

[2] = compound: NC(=O)c1ccc(N(C(N)=O)c2c(F)cccc2F)nc1-c1ccc(F)cc1F [VX-702] + Cc1cc(Nc2cc(N3CCN(C)CC3)nc(Sc3ccc(NC(=O)C4CC4)cc3)n2)n[nH]1 [Tozasertib] (partner 0.1 µM)
Outline: as §1

[3] = compound: NC(=O)c1ccc(N(C(N)=O)c2c(F)cccc2F)nc1-c1ccc(F)cc1F [VX-702] + Cc1nc(NC(=O)N2CCC[C@H]2C(N)=O)sc1-c1ccnc(C(C)(C)C(F)(F)F)c1 [Alpelisib] (partner 2 µM)
Outline: as §1

[4] = compound: NC(=O)c1ccc(N(C(N)=O)c2c(F)cccc2F)nc1-c1ccc(F)cc1F [VX-702] + N=C(N)NC(=N)NCCc1ccccc1 [Phenformin] (partner 250 µM)
Outline: as §1

| Cell Line | relative viability ([1]; first compound 0.02 µM) | relative viability ([1]; first compound 0.2 µM) | relative viability ([1]; first compound 0.6325 µM) | relative viability ([1]; first compound 2 µM) | relative viability ([2]; first compound 0.02 µM) | relative viability ([2]; first compound 0.2 µM) | relative viability ([2]; first compound 0.6325 µM) | relative viability ([2]; first compound 2 µM) | relative viability ([3]; first compound 0.02 µM) | relative viability ([3]; first compound 0.2 µM) | relative viability ([3]; first compound 0.6325 µM) | relative viability ([3]; first compound 2 µM) | relative viability ([4]; first compound 0.02 µM) | relative viability ([4]; first compound 0.2 µM) | relative viability ([4]; first compound 0.6325 µM) | relative viability ([4]; first compound 2 µM) |
| --- | --- | --- | --- | --- | --- | --- | --- | --- | --- | --- | --- | --- | --- | --- | --- | --- |
| LC-2-ad | 0.496 | 0.451 | 0.525 | 0.478 | 0.375 | 0.4 | 0.465 | 0.497 | 0.943 | 0.885 | 0.868 | 1.02 | 0.574 | 0.647 | 0.551 | 0.612 |
| LCLC-97TM1 | 0.192 | 0.23 | 0.195 | 0.3 | 0.175 | 0.183 | 0.301 | 0.252 | 0.187 | 0.238 | 0.205 | 0.227 | 0.439 | 0.434 | 0.43 | 0.482 |
| LCLC-103H | 0.459 | 0.498 | 0.439 | 0.434 | 0.405 | 0.355 | 0.456 | 0.541 | 0.964 | 0.949 | 0.977 | 0.9 | 0.344 | 0.344 | 0.316 | 0.325 |
| LK-2 | 0.533 | 0.618 | 0.567 | 0.614 | 0.153 | 0.173 | 0.157 | 0.168 | 0.611 |  | 0.635 | 1.18 | 0.38 | 0.478 | 0.354 | 0.387 |
| LOU-NH91 | 0.554 | 0.532 | 0.544 | 0.536 | 0.75 | 0.657 | 0.677 | 0.628 | 0.699 | 0.683 | 0.702 | 0.562 | 0.796 | 0.819 | 0.807 | 0.504 |
| LU99A | 0.407 | 0.387 | 0.389 | 0.34 | 0.315 | 0.25 | 0.257 | 0.263 | 0.52 | 0.485 | 0.48 | 0.467 | 0.957 | 0.851 | 0.792 | 0.643 |
| LXF-289 | 0.616 | 0.563 | 0.59 | 0.616 | 0.208 | 0.188 | 0.214 | 0.175 | 1.07 | 1.03 | 1.01 | 1.05 | 0.538 | 0.534 | 0.5 | 0.527 |
| NCI-H23 | 0.492 | 0.443 | 0.544 | 0.559 | 0.446 | 0.334 | 0.37 | 0.486 | 0.659 | 0.65 | 0.683 | 0.998 | 0.787 | 0.77 | 0.884 | 0.875 |
| NCI-H322M | 0.458 | 0.48 | 0.489 | 0.449 | 0.486 | 0.506 | 0.496 | 0.508 | 0.873 | 0.695 | 0.779 | 0.894 | 0.744 | 0.757 | 0.742 | 0.915 |
| NCI-H358 | 0.127 | 0.141 | 0.134 | 0.142 | 0.0998 | 0.0877 | 0.0872 | 0.115 | 0.804 | 0.778 | 0.777 | 0.973 | 0.318 | 0.293 | 0.289 | 0.429 |
